Results published in US5936101A, “Process for the preparation of 1,2-dioxetane compounds and novel sulfur-substituted 1,2-dioxetane compounds as intermediates” (Lumigen, Inc., priority 1997, dated 1999).

How the values were obtained:
[1] = Fluoride (TBAF in DMSO) induced chemiluminescence; format: physicochemical
[2] = Thermal stability / stability on silica of dioxetanes; format: physicochemical; details: TLC on silica versus NMR
Source text: (c) Synthesis of 4-ethylthio-4-(3-pivaloyloxyphenyl)spiro-[1,2-dioxetane-3,2'-tricyclo[3.3.1.1^3,7 ]decane] (2).

[3] = Base-induced decay of chemiluminescence of hydroxyphenyl alkylthio dioxetane in 221 buffer pH 9.6 with surfactant enhancers; format: physicochemical; details: for t1/2 (decay of chemiluminescence): 0.2 M 221 buffer, pH 9.6, 0.88 mM Mg+2, ambient temperature
Procedure: The first order decay of chemiluminescence of dioxetane 3 in 0.2 M 221 buffer, pH 9.6 containing 0.88 mM Mg^+2 and the surfactant enhancers shown below was measured at ambient temperature. Surfactant A is CTAB, B is poly(vinylbenzyltributylphosphonium chloride), C is poly(vinylbenzyltributylphosphonium chloride)-co-poly(vinylbenzyltrioctylphosphonium chloride), D is 1-trioctylphoniummethyl-4-tributylphosphonium-methylbenzene dichloride.

[4] = Base-induced decay of chemiluminescence of hydroxyphenyl alkoxy or aryloxy dioxetanes in 221 buffer pH 9.6; format: physicochemical; details: 0.2 M 221 buffer, 0.88 mM Mg+2, 1.0 mg/mL 1-trioctylphosphoniummethyl-4-tributylphosphoniummethylbenzene dichloride
Procedure: The first order decay of chemiluminescence of dioxetanes 14-19 in 0.2 M 2-methyl-2-amino-1-propanol (221) buffer, pH 9.6 containing 0.88 mM Mg^+2 and 1.0 mg/mL of 1-trioctylphosphoniummethyl-4-tributylphosphoniummethylbenzene dichloride was measured at 37° C. in a Turner Designs (Sunnyvale, Calif.) model TD-20e luminometer. The half-lives of decay of chemiluminescence (t1/2) of hydroxy-dioxetanes correlate with the times required to reach the maximum light intensity (Imax) in the alkaline phosphatase-triggered decomposition of the corresponding phosphate-dioxetanes under the same conditions. […] It is expected that, for example, the phosphate derivatives of dioxetanes 14-19 as well as others which can be produced by the process described herein will be useful in alkaline phosphatase-linkedassays known in the art.

[5] = Chemiluminescence on heating

SMILES	chemiluminescence colour ([1]; 0.1 M TBAF in DMSO)	t1/2 37° C. (half-life of decay of chemiluminescence) [4]	further results
CCSC1(c2cccc(O)c2)OOC12C1CC3CC(C1)CC2C3 (centres unmarked) [Dioxetane 1, 4-Ethylthio-4-(3-hydroxyphenyl)spiro[1,2-dioxetane-3,2'-tricyclo[3.3.1.1^3,7]decane]]	yellow emission		chemiluminescence colour ([1]; excess TBAF in DMSO): yellow chemiluminescence
CCSC1(c2cccc(OC(=O)C(C)(C)C)c2)OOC12C1CC3CC(C1)CC2C3 (centres unmarked) [Dioxetane 2, 4-Ethylthio-4-(3-pivaloyloxyphenyl)spiro[1,2-dioxetane-3,2'-tricyclo-[3.3.1.1^3,7]decane]]			chemiluminescence colour ([1]; excess TBAF in DMSO): yellow chemiluminescence; stability on silica [2]: less stable on silica
Oc1cccc(C2(Sc3ccc(F)cc3)OOC23C2CC4CC(C2)CC3C4)c1 (centres unmarked) [Dioxetane 3, 4-(p-Fluorophenylthio)-4-(3-hydroxyphenyl)spiro[1,2-dioxetane-3,2'-tricyclo-[3.3.1.1^3,7]decane]]			t1/2 (decay of chemiluminescence) ([3]; Surfactant A (CTAB) 0.41 g/L): 11.2 min; t1/2 (decay of chemiluminescence) ([3]; Surfactant B (poly(vinylbenzyltributylphosphonium chloride)) 0.5 g/L): 4.2 min; t1/2 (decay of chemiluminescence) ([3]; Surfactant C (poly(vinylbenzyltributylphosphonium chloride)-co-poly(vinylbenzyltrioctylphosphonium chloride)) 0.5 g/L): 2.9 min; t1/2 (decay of chemiluminescence) ([3]; Surfactant D (1-trioctylphoniummethyl-4-tributylphosphonium-methylbenzene dichloride) 1.0 g/L): 2.0 min; kinetics for light emission compared with dioxetane 6 or alkoxy-substituted analogues ([3]; alkaline amine buffer containing metal salts): comparable to dioxetane 6
CC(C)(C)C(=O)Oc1cccc(C2(Sc3ccc(F)cc3)OOC23C2CC4CC(C2)CC3C4)c1 (centres unmarked) [Dioxetane 4, 4-(p-Fluorophenylthio)-4-(3-pivaloyloxyphenyl)spiro[1,2-dioxetane-3,2'tricyclo-[3.3.1.1^3,7]decane]]	yellow emission		chemiluminescence colour ([1]; excess TBAF in DMSO): red chemiluminescence
Oc1cccc(C2(SCC(F)(F)F)OOC23C2CC4CC(C2)CC3C4)c1 (centres unmarked) [Dioxetane 5, 4-(2,2,2-trifluoroethylthio)-4-(3-hydroxyphenyl)spiro[1,2-dioxetane-3,2'-tricyclo[3.3.1.1^3,7]decane]]			chemiluminescence colour ([1]; excess TBAF in DMSO): orange-yellow light
COC1(c2cccc(O)c2)OOC12C1CC3CC(C1)CC2C3 (centres unmarked) [Dioxetane 6, 4-(3-Hydroxyphenyl)-4-methoxyspiro[1,2-dioxetane-3,2'-tricyclo[3.3.1.1^3,7]decane]]	blue emission		
CC(C)OC1(c2cccc(O)c2)OOC12C1CC3CC(C1)CC2C3 (centres unmarked) [Dioxetane 7, 4-Isopropoxy-4-(3-hydroxyphenyl)spiro[1,2-dioxetane-3,2'-tricyclo[3.3.1.1^3,7]decane]]	blue emission		
C=CCOC1(c2cccc(O)c2)OOC12C1CC3CC(C1)CC2C3 (centres unmarked) [Dioxetane 8, 4-(3-Hydroxyphenyl)-4-(2-propenyloxy) spiro[1,2-dioxetane-3,2'-tricyclo[3.3.1.1^3,7]decane]]	blue emission		
N#CCCOC1(c2cccc(O)c2)OOC12C1CC3CC(C1)CC2C3 (centres unmarked) [Dioxetane 9, 4-(2-Cyanoethoxy)-4-(3-hydroxyphenyl)spiro[1,2-dioxetane-3,2'-tricyclo-[3.3.1.1^3,7]decane]]	blue emission		
OCCOC1(c2cccc(O)c2)OOC12C1CC3CC(C1)CC2C3 (centres unmarked) [Dioxetane 10, 4-(2-Hydroxyethoxy)-4-(3-hydroxyphenyl)spiro[1,2-dioxetane-3,2'-tricyclo-[3.3.1.1^3,7]decane]]	blue emission		
Oc1cccc(C2(Oc3ccccc3)OOC23C2CC4CC(C2)CC3C4)c1 (centres unmarked) [Dioxetane 11, 4-(3-Hydroxyphenyl)-4-phenoxyspiro[1,2-dioxetane-3,2'-tricyclo[3.3.1.1^3,7]decane]]	blue emission		
Oc1cccc(C2(OC(C(F)(F)F)C(F)(F)F)OOC23C2CC4CC(C2)CC3C4)c1 (centres unmarked) [Dioxetane 14, 4-(Hexafluoroisopropoxy)-4-(3-hydroxyphenyl)spiro[1,2-dioxetane-3,2'-tricyclo-[3.3.1.1^3,7]decane]]		0.16 min	
Oc1cccc(C2(OCC(Cl)(Cl)Cl)OOC23C2CC4CC(C2)CC3C4)c1 (centres unmarked) [Dioxetane 15, 4-(3-Hydroxyphenyl)-4-(2 2,2-trichloroethoxy)spiro[1,2-dioxetane-3,2'-tricyclo-[3.3.1.1^3,7]decane]]		3.7 min	
Oc1cccc(C2(OCC(Cl)Cl)OOC23C2CC4CC(C2)CC3C4)c1 (centres unmarked) [Dioxetane 16, 4-(2,2-Dichloroethoxy)-4-(3-hydroxyphenyl)spiro[1,2-dioxetane-3,2'-tricyclo-[3.3.1.1^3,7]decane]]		4.1 min	
Oc1cccc(C2(OCC(F)(F)C(F)(F)F)OOC23C2CC4CC(C2)CC3C4)c1 (centres unmarked) [Dioxetane 17, 4-(3-Hydroxyphenyl)-4-(2,2,3,3,3-pentafluoropropoxy)spiro[1,2-dioxetane-3,2'-tricyclo[3.3.1.1^3,7]decane]]		3.4 min	
Oc1cccc(C2(OCC(F)(F)C(F)(F)C(F)(F)F)OOC23C2CC4CC(C2)CC3C4)c1 (centres unmarked) [Dioxetane 18, 4-(2,2,3,3,4,4,4-Heptafluorobutoxy)-4-(3-hydroxyphenyl)spiro[1,2-dioxetane-3,2'-tricyclo[3.3.1.1^3,7]decane]]		4.9 min	
Oc1cccc(C2(Oc3c(F)cccc3F)OOC23C2CC4CC(C2)CC3C4)c1 (centres unmarked) [Dioxetane 19, 4-(2',6'-Difluorophenoxy)-4-(3-hydroxyphenyl)spiro[1,2-dioxetane-3,2'-tricyclo[3.3.1.1^3,7]decane]]		1.76 min	
COC1(c2cccc(OC(=O)C(C)(C)C)c2)OOC12C1CC3CC(C1)CC2C3 (centres unmarked) [Dioxetane 20, 4-Methoxy-4-(3-pivaloyloxyphenyl)spiro[1,2-dioxetane-3,2'-tricyclo-[3.3.1.1^3,7]decane]]	blue emission		
COC1(c2cccc(O[Si](C)(C)C(C)(C)C)c2)OOC12C1CC3CC(C1)CC2C3 (centres unmarked) [Dioxetane 21]	blue chemiluminescence		chemiluminescence on heating [5]: blue chemiluminescence
COC1(c2cccc(O[Si](c3ccccc3)(c3ccccc3)C(C)(C)C)c2)OOC12C1CC3CC(C1)CC2C3 (centres unmarked) [Dioxetane 22]	blue chemiluminescence		chemiluminescence on heating [5]: blue chemiluminescence
